The results in this text go back to patent publication US12448399B2, “Cereblon-based KRAS degrading PROTACs and uses related thereto” (Arvinas Operations, Inc., priority 2023, dated 2025).

The target in this assay is T1, KRas-G12D (Homo sapiens, UniProt P01116, G12D).
T1 construct: insert the HiBiT tag onto the N-terminus of one or more of the endogenous KRas alleles; host or cells: AsPC-1 HiBiT-KRasG12D knock-in clone (one tagged allele, two untagged KRasG12D alleles)
Description: HiBiT Degradation Assay (G12D), AsPC-1 HiBiT-KRasG12D cells, 24 hr. It is filed as cell-based. The conditions noted are these: for Dmax: ASPC1, AsPC-1 cells, maximum degradation observed; for DC50: AsPC-1 cells. The procedure, abridged:
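Degradation was read after 24 hr compound exposure (0.5% DMSO, 37° C) by Nano-Glo HiBiT lytic luminescence in AsPC-1 cells carrying a HiBiT tag on one of three KRasG12D alleles. Signal relative to DMSO gave DC50 and Dmax by 4-parameter fit; alamar blue fluorescence monitored cytotoxicity.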

T1 sequence (P01116 1-188 isoform P01116-2 G12D): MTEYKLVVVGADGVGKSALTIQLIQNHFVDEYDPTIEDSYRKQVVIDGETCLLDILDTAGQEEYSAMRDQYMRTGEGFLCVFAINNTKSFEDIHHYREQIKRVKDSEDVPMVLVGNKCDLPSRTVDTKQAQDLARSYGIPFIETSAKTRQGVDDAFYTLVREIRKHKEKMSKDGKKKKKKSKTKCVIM

Usually Dmax stands for the largest share of the target that was removed. In general, DC50 refers to the midpoint of the concentration-degradation curve. Low readings indicate degradation at low concentration, high ones degradation only at high concentration. As to `CCc1c(F)ccc2cc(O)cc(-c3ncc4c(N5CC6CCC(C5)N6)nc(OC[C@@H]5C[C@@H](OC6CCN(CC7CCN(c8ccc9c(c8)CN(C8CCC(=O)NC8=O)C9=O)CC7)CC6)CN5C)nc4c3F)c12` (stereo partly drawn) [Compound 85, 3-(5-{4-[(4-{[(3R,5S)-5-{[(4-{3,8-diazabicyclo[3.2.1]octan-3-yl}-7-(8-ethyl-7-fluoro-3-hydroxynaphthalen-1-yl)-8-fluoropyrido[4,3-d]pyrimidin-2-yl)oxy]methyl}-1-methylpyrrolidin-3-yl]oxy}piperidin-1-yl)methyl]piperidin-1-yl}-1-oxo-2,3-dihydro-1H-isoindol-2-yl)piperidine-2,6-dione], the greatest degradation seen (Dmax) was greater than 70% and the DC50 was less than 5.1 µM.

For `CCc1c(F)ccc2cc(O)cc(-c3ncc4c(N5CC6CCC(C5)N6)nc(OCCN5CCC(CC6CCN(CC7CCN(c8ccc9c(c8)CN(C8CCC(=O)NC8=O)C9=O)CC7)CC6)CC5)nc4c3F)c12` (centres unmarked) [Compound 86, 3-{5-[4-({4-[(1-{2-[(4-{3,8-diazabicyclo[3.2.1]octan-3-yl}-7-(8-ethyl-7-fluoro-3-hydroxynaphthalen-1-yl)-8-fluoropyrido[4,3-d]pyrimidin-2-yl)oxy]ethyl}piperidin-4-yl)methyl]piperidin-1-yl}methyl)piperidin-1-yl]-1-oxo-2,3-dihydro-1H-isoindol-2-yl}piperidine-2,6-dione], the maximal degradation (Dmax) is greater than 70% and the 50% degradation concentration (DC50) was less than 5.1 µM.

For the compound `C#Cc1c(F)ccc2cc(O)cc(-c3ncc4c(N5CC6CCC(C5)N6)nc(OCCN5CCC(CN6CCC(CC7CCN(c8ccc9c(c8)CN(C8CCC(=O)NC8=O)C9=O)CC7)CC6)CC5)nc4c3F)c12` (centres unmarked) [Compound 87, 3-[5-[4-[[1-[[1-[2-[4-(3,8-diazabicyclo[3.2.1]octan-3-yl)-7-(8-ethynyl-7-fluoro-3-hydroxy-1-naphthyl)-8-fluoropyrido[4,3-d]pyrimidin-2-yl]oxyethyl]-4-piperidyl]methyl]-4-piperidyl]methyl]-1-piperidyl]-1-oxo-isoindolin-2-yl]piperidine-2,6-dione], the Dmax was greater than 70% and the DC50 was less than 5.1 µM.

For `C#Cc1c(F)ccc2cc(O)cc(-c3ncc4c(N5CC6CCC(C5)N6)nc(OCCN5CCC(CN6CCC(CC7CCN(c8ccc9c(c8F)CN(C8CCC(=O)NC8=O)C9=O)CC7)CC6)CC5)nc4c3F)c12` (centres unmarked) [Compound 88, 3-{5-[4-({1-[(1-{2-[(4-{3,8-diazabicyclo[3.2.1]octan-3-yl}-7-(8-ethynyl-7-fluoro-3-hydroxynaphthalen-1-yl)-8-fluoropyrido[4,3-d]pyrimidin-2-yl)oxy]ethyl}piperidin-4-yl)methyl]piperidin-4-yl}methyl)piperidin-1-yl]-4-fluoro-1-oxo-2,3-dihydro-1H-isoindol-2-yl}piperidine-2,6-dione], the Dmax was greater than 70% and the DC50 was less than 5.1 µM.

`C#Cc1c(F)ccc2cc(O)cc(-c3ncc4c(N5CC6CCC(C5)N6)nc(OCCN5CCC(CC6CCN(c7ccc8c(c7)n(C)c(=O)n8C7CCC(=O)NC7=O)CC6)CC5)nc4c3F)c12` (centres unmarked) [Compound 89, 3-(5-{4-[(1-{2-[(4-{3,8-diazabicyclo[3.2.1]octan-3-yl}-7-(8-ethynyl-7-fluoro-3-hydroxynaphthalen-1-yl)-8-fluoropyrido[4,3-d]pyrimidin-2-yl)oxy]ethyl}piperidin-4-yl)methyl]piperidin-1-yl}-3-methyl-2-oxo-2,3-dihydro-1H-1,3-benzodiazol-1-yl)piperidine-2,6-dione] came in with a Dmax greater than 70% and a DC50 of less than 5.1 µM.

`C#Cc1c(F)ccc2cc(O)cc(-c3ncc4c(N5CC6CCC(C5)N6)nc(OCCN5CCC(CC6(F)CCN(CC7CCN(c8ccc9c(c8)CN(C8CCC(=O)NC8=O)C9=O)CC7)CC6)CC5)nc4c3F)c12` (centres unmarked) [Compound 90, 3-{5-[4-({4-[(1-{2-[(4-{3,8-diazabicyclo[3.2.1]octan-3-yl}-7-(8-ethynyl-7-fluoro-3-hydroxynaphthalen-1-yl)-8-fluoropyrido[4,3-d]pyrimidin-2-yl)oxy]ethyl}piperidin-4-yl)methyl]-4-fluoropiperidin-1-yl}methyl)piperidin-1-yl]-1-oxo-2,3-dihydro-1H-isoindol-2-yl}piperidine-2,6-dione] showed a DC50 greater than 1 µM.

Compound `C#Cc1c(F)ccc2cc(O)cc(-c3ncc4c(N5CC6CCC(C5)N6)nc(OCCN5CCC(F)(CC6CCN(CC7CCN(c8ccc9c(c8)CN(C8CCC(=O)NC8=O)C9=O)CC7)CC6)CC5)nc4c3F)c12` (centres unmarked) [Compound 91, 3-[5-[4-[[4-[[1-[2-[4-(3,8-diazabicyclo [3.2.1]octan-3-yl)-7-(8-ethynyl-7-fluoro-3-hydroxy-1-naphthyl)-8-fluoro-pyrido[4,3-d]pyrimidin-2-yl]oxyethyl]-4-fluoro-4-piperidyl]methyl]-1-piperidyl]methyl]-1-piperidyl]-1-oxo-isoindolin-2-yl]piperidine-2,6-dione] had a Dmax greater than 70% and a DC50 of less than 5.1 µM.

For the compound `C#Cc1c(F)ccc2cc(O)cc(-c3ncc4c(N5CC6CCC(C5)N6)nc(OCCN5CCC(CN6CCC7(CC6)CCN(c6ccc8c(c6F)CN(C6CCC(=O)NC6=O)C8=O)CC7)CC5)nc4c3F)c12` (centres unmarked) [Compound 92, 3-(5-{9-[(1-{2-[(4-{3,8-diazabicyclo[3.2.1]octan-3-yl}-7-(8-ethynyl-7-fluoro-3-hydroxynaphthalen-1-yl)-8-fluoropyrido[4,3-d]pyrimidin-2-yl)oxy]ethyl}piperidin-4-yl)methyl]-3,9-diazaspiro[5.5]undecan-3-yl}-4-fluoro-1-oxo-2,3-dihydro-1H-isoindol-2-yl)piperidine-2,6-dione], the Dmax is greater than 70% and the 50% degradation concentration (DC50) was less than 5.1 µM.

With `C#Cc1c(F)ccc2cc(O)cc(-c3ncc4c(N5CC6CCC(C5)N6)nc(OCCN5CCC(CN6CCC7(CC6)CCN(c6ccc8c(c6)CN(C6CCC(=O)NC6=O)C8=O)CC7)CC5)nc4c3F)c12` (centres unmarked) [Compound 93, 3-(5-{9-[(1-{2-[(4-{3,8-diazabicyclo[3.2.1]octan-3-yl}-7-(8-ethynyl-7-fluoro-3-hydroxynaphthalen-1-yl)-8-fluoropyrido[4,3-d]pyrimidin-2-yl)oxy]ethyl}piperidin-4-yl)methyl]-3,9-diazaspiro[5.5]undecan-3-yl}-1-oxo-2,3-dihydro-1H-isoindol-2-yl)piperidine-2,6-dione], the greatest degradation seen (Dmax) is greater than 70% and the DC50 was less than 5.1 µM.

`C#Cc1c(F)ccc2cc(O)cc(-c3ncc4c(N5CC6CCC(C5)N6)nc(OCCN5CCC(CC6CCN(CC7CCN(c8cccc9c8n(C(C)C)c(=O)n9C8CCC(=O)NC8=O)CC7)CC6)CC5)nc4c3F)c12` (centres unmarked) [Compound 94, 3-{4-[4-({4-[(1-{2-[(4-{3,8-diazabicyclo[3.2.1]octan-3-yl}-7-(8-ethynyl-7-fluoro-3-hydroxynaphthalen-1-yl)-8-fluoropyrido[4,3-d]pyrimidin-2-yl)oxy]ethyl}piperidin-4-yl)methyl]piperidin-1-yl}methyl)piperidin-1-yl]-2-oxo-3-(propan-2-yl)-2,3-dihydro-1H-1,3-benzodiazol-1-yl}piperidine-2,6-dione] returned a Dmax greater than 70% and a DC50 of less than 5.1 µM.

For `C#Cc1c(F)ccc2cc(O)cc(-c3ncc4c(N5CC6CCC(C5)N6)nc(OC[C@@H]5C[C@@H](OC6CCN(CC7CCN(c8ccc9c(c8)n(C(C)C)c(=O)n9C8CCC(=O)NC8=O)CC7)CC6)CN5C)nc4c3F)c12` (stereo partly drawn) [Compound 95, 3-(5-{4-[(4-{[(3R,5S)-5-{[(4-{3,8-diazabicyclo[3.2.1]octan-3-yl}-7-(8-ethynyl-7-fluoro-3-hydroxynaphthalen-1-yl)-8-fluoropyrido[4,3-d]pyrimidin-2-yl)oxy]methyl}-1-methylpyrrolidin-3-yl]oxy}piperidin-1-yl)methyl]piperidin-1-yl}-2-oxo-3-(propan-2-yl)-2,3-dihydro-1H-1,3-benzodiazol-1-yl)piperidine-2,6-dione], the Dmax is greater than 70% and the half-maximal degradation concentration (DC50) is less than 5.1 µM.

With `C#Cc1c(F)ccc2cc(O)cc(-c3ncc4c(N5CC6CCC(C5)N6)nc(OC[C@@H]5C[C@@H](OC6CCN(CC7CCN(c8ccc9c(c8)n(C)c(=O)n9C8CCC(=O)NC8=O)CC7)CC6)CN5C)nc4c3F)c12` (stereo partly drawn) [Compound 96, 3-(5-{4-[(4-{[(3R,5S)-5-{[(4-{3,8-diazabicyclo[3.2.1]octan-3-yl}-7-(8-ethynyl-7-fluoro-3-hydroxynaphthalen-1-yl)-8-fluoropyrido[4,3-d]pyrimidin-2-yl)oxy]methyl}-1-methylpyrrolidin-3-yl]oxy}piperidin-1-yl)methyl]piperidin-1-yl}-3-methyl-2-oxo-2,3-dihydro-1H-1,3-benzodiazol-1-yl)piperidine-2,6-dione], the maximal degradation (Dmax) is greater than 70% and the DC50 is less than 5.1 µM.

In turn, `C#Cc1c(F)ccc2cc(O)cc(-c3ncc4c(N5CC6CCC(C5)N6)nc(OCCN5CCC(CC6CCN(CC7CCN(c8ccc9c(c8)CN(C8(C)CCC(=O)NC8=O)C9=O)CC7)CC6)CC5)nc4c3F)c12` (centres unmarked) [Compound 97] returned a DC50 greater than 1 µM.

Turning to `C#Cc1c(F)ccc2cc(O)cc(-c3ncc4c(N5CC6CCC(C5)N6)nc(OCCN5CCC(CC6CCN(CC7CCN(c8ccc9c(c8)n(C(C)C)c(=O)n9C8CCC(=O)NC8=O)CC7)CC6)CC5)nc4c3F)c12` (centres unmarked) [Compound 98, 3-{5-[4-({4-[(1-{2-[(4-{3,8-diazabicyclo[3.2.1]octan-3-yl}-7-(8-ethynyl-7-fluoro-3-hydroxynaphthalen-1-yl)-8-fluoropyrido[4,3-d]pyrimidin-2-yl)oxy]ethyl}piperidin-4-yl)methyl]piperidin-1-yl}methyl)piperidin-1-yl]-2-oxo-3-(propan-2-yl)-2,3-dihydro-1H-1,3-benzodiazol-1-yl}piperidine-2,6-dione], the Dmax was greater than 70% and the half-maximal degradation concentration (DC50) was less than 5.1 µM.
